Data reported in patent US5534554A, “Sucrose ester-C20 to C28 alcohol formulations” (priority 1994, dated 1996).

How the values were obtained:
Friend virus [1] = test: Friend virus-induced leukemia and viremia in mice; format: in vivo, BALB/c mice; settings: intravenous
Cytomegalovirus [2] = test: Antiviral activity against human cytomegalovirus; format: cell-based, human virus; settings: Table 6, human viruses
HSV = test: Inhibition of HSV replication, Tetronic versus Pluronic suspensions; format: cell-based
[3] = tested on: Respiratory Syncytial Virus; test: Antiviral activity against respiratory syncytial virus; format: cell-based; settings: Table 6, human viruses
wild-type HSV-2 = test: Plaque inhibition, wild-type HSV-2 in Vero cells; format: cell-based; settings: FIG. 7, Panel A
Cytomegalovirus [4] = test: Antiviral activity against murine cytomegalovirus; format: cell-based, murine virus; settings: Table 6, murine viruses
prostate gland = settings: oral, U.S. Pat. No. 4,186,211; cited from earlier work
HSV-1 = test: Inhibition of HSV-1-induced cutaneous lesions (vesicles) in hairless guinea pigs; format: in vivo; settings: continued treatment
Description: Burroughs Wellcome Co., Research Triangle Park, N.C.; the current agent of choice for treatment of HSV infections which inhibits activity of viral DNA polymerase) in inhibiting HSV-1-induced cutaneous lesions in hairless guinea pigs. […] To confirm in an experimental animal model the efficacy of n-docosanol cream on HSV-induced lesions, and to compare its activity to that of […], hairless guinea pigs were inoculated with 1×10^6 PFU of HSV-1, and then treated with either n-docosanol-containing or control cream, or […] ointment. The n-docosanol creams were constructed as described. The control cream was constructed in a similar manner except stearic acid was substituted for n-docosanol. Treatment was started either 2 or 48 hours after virus inoculation. The sites were evaluated for vesicle formation, defined as a pus-filled blister, at the indicated time points.

HSV-2 = format: cell-based
virus = test: Direct virucidal activity; settings: n-docosanol suspension
Description: The collective implications of the results of the studies are that the compound appears to interfere with one or more of the common pathways of viral entry into the cell and migration to the nucleus of infected target cells.

[5] = tested on: Herpes simplex virus type 2; test: Inhibition of HSV type 2 infectivity in simian and human cell lines; format: cell-based, HSV-2
reovirus = test: Antiviral activity against reovirus; format: cell-based; settings: nonenveloped virus
Friend Virus [6] = test: Replication of Friend Virus in vitro in primary embryo fibroblast cultures; format: cell-based, murine
viruses = settings: U.S. Pat. No. 4,874,794; cited from earlier work
murine retroviruses = test: Replication of murine retroviruses in vitro and in vivo
Description: n-Docosanol has anti-retroviral activity both in vitro and in vivo. […] Notwithstanding the implications for treatment of AIDS, availability of a treatment regimen for diseases caused by retroviruses like feline leukemia virus, bovine leukemia virus, as well HTLV-1 and -2 would have substantial benefits in humanitarian terms.

Vero cells = test: Metabolism of n-[14C]-docosanol in Vero cells (TLC); settings: sodium azide and 2-deoxyglucose
Vero or MDBK cells = test: Uptake and metabolism in Vero versus MDBK cells; format: in vitro ADME, bovine (MDBK)
Procedure: FIG. 11 depicts data showing that n-[^14 C]-docosanol is metabolized more by Vero cells than by MDBK cells. Vero or MDBK cells were plated as described in the specification. n-[^14 C]-Docosanol was added to 6 mM (0.24 mM Tetronic 908) and the cultures were incubated 72 hours at 37° C./CO2. Cells were extracted and analyzed on TLC with hexane:diethyl ether:acetic acid (20:30:1; v:v:v) as the developing solvent. With this solvent system the polar phosphatides remain at the origin. The position of migration of n-docosanol is indicated. Duplicate plates were treated with an identical suspension lacking the radioactive label, and the numbers of cells in these duplicate plates were determined by counting cells excluding trypan blue with a hemocytometer.
When we compared total cellular uptake and relative metabolism, the results were strikingly clear. First, both the total amounts of n-docosanol uptake and the relative amounts of metabolic conversion were 3-4 times higher in Vero than in MDBK cells. […] Nonetheless, of the counts that are metabolized in two cells lines, the relative amounts in the major classes of phosphatides that are formed, phosphatidylcholine and phosphatidylethanolamine, are not different in the two cell lines.

[7] = tested on: recurrent herpes labialis; test: Study A: Phase 2 study in recurrent herpes labialis; format: in vivo, human; settings: for time to healing, mean: 10% cream, all treatment episodes
Description: Two clinical efficacy studies have been completed. Study A was a randomized, double-blind, placebo-controlled Phase 2 study in 63 patients (male and female) with recurrent herpes labialis. All of the 31 n-docosanol 10% cream-treated patients in the herpes labialis study, Study A, completed their treatment; 2 of those 31 patients reported a burning or stinging sensation after application of the cream. […] Study B was a randomized, double-blind, placebo-controlled trial in 44 female patients with recurrent herpes genitalis.
Sixty five patients (aged 18-60) took part in the Study A, 32 patients were initially randomized to receive 10% n-docosanol cream and 33 were initially randomized to receive placebo cream. Treatment was patient-initiated, and treatment initiation was defined as `early` if the treatment started at prodrome or erythema stage and as `late` if started at the papule stage or later. Two patients were excluded from the analysis. Of the 63 evaluable patients, 22 were entered into the cross-over phase of the study. In addition, 13 patients treated more than one episode with the same study medication. Therefore, a total of 98 herpes episodes--48 treated with 10% n-docosanol cream and 50 treated with placebo cream--were analyzed.

SMILES: CCCCCCCCCCCCCCCCCCCCCCO [n-docosanol]
- inhibition of development of leukemic foci (Friend virus [1]; FIG. 12 Panel A): very clear dose-related inhibitory affect
- inhibition of development of viremia (Friend virus [1]; FIG. 12 Panel B): very clear dose-related inhibitory affect
- susceptibility to antiviral activity: Cytomegalovirus (Cytomegalovirus [2]): susceptible
- ED50 in Pluronic relative to Tetronic (HSV; suspended in Pluronic F-68): approximately 3 times
- EC50 (HSV; suspended in Tetronic 908, read-out: ED50 for inhibition of HSV replication): 5 to 10 mM
- susceptibility to antiviral activity: Respiratory Syncytial Virus [3]: susceptible
- inhibition of plaque formation (wild-type HSV-2): inhibit plaque formation by wild type HSV-2 equally
- susceptibility to antiviral activity: Cytomegalovirus (Cytomegalovirus [4]): susceptible
- treatment of enlargement of the prostate gland (prostate gland): therapeutically effective
- vesicle number at the 72 hour time point (HSV-1): many fewer vesicles
- internalization of HSV complete by 20 minutes (HSV-2; after shift to 37° C.): less than 40%
- time to completion of internalization (HSV-2; after shift to 37° C.): more than 1 hour
- persistence of bound HSV virions on the cell surface (HSV-2; in the presence of n-docosanol): remain on the cell surface for a prolonged time period
- direct virucidal activity (virus): no direct virucidal activity
- susceptibility to antiviral activity: Herpes Simplex - 2 ([5]; Table 6): susceptible
- inhibitory activity in vitro ([5]; suspension in Pluronic F-68): excellent inhibitory activity
- activity against reovirus (reovirus): no detectable activity
- susceptibility to antiviral activity: Friend Leukemia Virus (Friend Virus [6]; Table 6, murine viruses): susceptible
- activity against replication of Friend Virus in vitro (Friend Virus [6]; primary embryo fibroblast cultures): very potent activity
- antiviral properties (viruses): favorable
- inhibition of murine retrovirus replication (murine retroviruses): does inhibit replication of murine retroviruses in vitro and in vivo
- reduction of metabolic conversion into polar metabolites by energy poisons (Vero cells): 80%
- relative metabolic conversion, Vero relative to MDBK cells (Vero or MDBK cells): 3-4 times
- total uptake, Vero relative to MDBK cells (Vero or MDBK cells): 3-4 times
- amount of phosphatide metabolite, Vero relative to MDBK cells (Vero or MDBK cells; after 72 hours, FIG. 11): ~4 fold
- relative amounts of phosphatidylcholine and phosphatidylethanolamine in the two cell lines (Vero or MDBK cells; of counts metabolized): not different
- time to healing, mean ([7]; all treatments): 5.7 days
- time to healing, mean ([7]; early treatment): 3.4 days
- reduction in mean overall healing time versus placebo ([7]; all 98 episodes, P=0.02): 1.6 days
- reduction in mean healing time ([7]; all episodes, early treatment, P=0.05): 3.3 days
- difference in healing time, late treatment ([7]; cross-over portion, P=0.03): significant difference in favor of n-docosanol
